Source: US20250313546A1, “NUCLEIC ACID BINDERS” (UNIVERSITY OF STRATHCLYDE, priority 2022, published 2025)
In brackets after ≈: the same amount, converted by molar mass.

Experiments:
C. neoformans (F10025) = conditions: Cryptococcus neoformans, read-out: MIC99 C. neoformans
[1] = system: A. fumigatus A1160 (MFIG001); conditions: Aspergillus fumigatus, read-out: MIC99 A. fumigatus A1160
[2] = system: Staphylococcus aureus (ATCC 43300); assay: Antibacterial MIC, broth microdilution (CLSI); assay type: cell-based; conditions: for MIC80: Staphylococcus aureus, ATCC43300, read-out: MIC80 S. aureus; for S. aureus Selectivity Indices, Group: SI, IC50 (μM)/MIC80 (μM), HEK293 cytotoxicity, Alkyl Amidines and NH Pyrroles
[3] = system: Candida glabrata (ACPF3309); conditions: Nakaseomyces glabratus, read-out: MIC99 Candida glabrata
[4] = system: PolyAU double stranded RNA; assay: Fluorescence intercalator displacement (FID) assay, SYBR-safe probe; conditions: 20 μM compound, 30° C., lower % = stronger binding
How it was run: (§1)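 Probe displacement was measured at 30 °C in 1 mM phosphate pH 7.4 containing SybrSafe (12500-fold dilution), 3.76 ng/mL nucleic acid (salmon dsDNA or polyAU dsRNA) and 20 μM compound. Fluorescence loss is normalised between probe-only and probe-plus-nucleic-acid controls.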

[5] = system: Genomic double stranded DNA (salmon); assay: as above; conditions: 20 μM compound, 30° C., lower % = stronger binding
How it was run: as §1

[6] = system: Enterococcus faecalis (ATCC 51299); assay: Antibacterial MIC, broth microdilution (CLSI); assay type: cell-based; conditions: Enterococcus faecalis, ATCC51299; read-out: MIC80 E. faecalis
T. vaginalis = assay: Trichomonas resorufin assay; assay type: cell-based; conditions: for IC50: Trichomonas vaginalis, read-out: IC50 T. vaginalis
[7] = system: human respiratory syncytial virus (RSV A2); assay: Viral ToxGlo assay, Hep-2 cells; assay type: cell-based; conditions: 72 h
Influenza (H1N1) = assay: Accelerated Viral Neuraminidase Inhibition Assay (AVINA), A549 cells; assay type: cell-based; conditions: Influenza A virus, 72 h
[8] = system: Escherichia coli (ATCC 25922); assay: Antibacterial MIC, broth microdilution (CLSI); assay type: cell-based; conditions: Escherichia coli, ATCC25922; read-out: MIC80 E. coli
T. equiperdum = assay: Resazurin-based (Alamar blue) drug sensitivity assay; conditions: Trypanosoma equiperdum, read-out: IC50 T. equiperdum
Method: A detailed description of the procedure for evaluating activity against trypanosomes, using an Alamar Blue (resazurin) assay, is described below.
The bloodstream form (BSF) T. b. brucei s427 (see De Koning, H. P. et al., Mol. Biochem. Parasitol. 2000, 106, 181-185), T. evansi AntTat 3/3 (see Dean, S. et al., Proc. Natl. Acad. Sci. USA, 2013, 110, 14741-14746), and T. equiperdum (see Stewart, M. L. et al., Eukaryot. Cell, 2010, 9, 336-343) were cultured in HMI-9 medium (Life Technologies, Paisley, United Kingdom) supplemented with 10% heat inactivated Foetal Bovine Serum (FBS (PAA Laboratories Linz, Austria)), 14 μL/L β-mercaptoethanol (BDH, Dorset, UK), and 3.0 g/L NaHCO3 (Sigma-Aldrich) and adjusted to pH 7.4. These cell lines were maintained at 37° C. in a humidified, 5% CO2 environment.
A resazurin-based (Alamar blue) drug sensitivity assay was used to assess and compare the activity of standard trypanocides in the different cell lines investigated (see Gould, M. K. et al., Anal. Biochem., 2008, 382, 87-93). Briefly, 23 doubling dilutions of the test compound of the invention, starting at 100 μM, and a compound-free control were prepared in 100 μL medium in a 96-well white plate (Greiner Bio-one, Frickenhausen, Germany). The cells were adjusted to 2×10^4 cells/mL for T. b. brucei and T. equiperdum; 4×10^4 cells/mL for T. evansi; and 5×10^5 cells/mL for T. congolense in the appropriate medium. 100 μL of the adjusted cells was then added to the wells containing drug dilutions and incubated for 48 h under respective culture condition. Thereafter, 20 μL of 125 mg/mL resazurin sodium dye was added, and the plate was incubated for a further 24 h.

T. evansi AntTat 3/3 = assay: as above; conditions: read-out: IC50 T. evansi
[9] = system: SARS-CoV-2 (hCoV-19/Australia/VIC01/2020); assay: SARS-CoV-2 microplaque inhibition assay in Vero-E6 cells; assay type: cell-based; conditions: Severe acute respiratory syndrome coronavirus 2, Vero C1008; plaque inhibition, Vero-E6 cells; read-out: IC50 SARS-CoV-2
[10] = system: Human rhinovirus (HRV-14); assay: Viral ToxGlo assay, Hela Ohio cells; assay type: cell-based; conditions: M-HeLa, 72 h
[11] = system: Rhizopus arrhizus (NEQAS12.35321); conditions: read-out: MIC99 Rhizopus arrhizus

**Q.** How did the MIC99 (C. neoformans (F10025)) turn out when `[H]/N=C(\CCNC(=O)c1cc(NC(=O)c2cc(NC(=O)c3ccc(C=Cc4ccc(C#N)cc4)cc3)cn2C)cn1C)NC(C)C` [Ia17, (E)-4-(4-(4-cyanostyryl)benzamido)-N-(5-((3-imino-3-(isopropylamino)propyl)carbamoyl)-1-methyl-1H-pyrrol-3-yl)-1-methyl-1H-pyrrole-2-carboxamide] was run?
**A.** > 50 µg/mL

**Q.** And the MIC99 [1]?
**A.** > 50 µg/mL

**Q.** What about the MIC80 [2] of the same compound?
**A.** 25 to 100 µM (≈ 15.1 to 60.5 µg/mL)

**Q.** And the MIC99 [3]?
**A.** 25 to 50 µg/mL (≈ 41.3 to 82.7 µM)

**Q.** And the “% Normalised Fluorescence with polyAU RNA” value [4]?
**A.** 28%

**Q.** What about the “% Normalised Fluorescence with gDNA” value [5] of the same compound?
**A.** 13%

**Q.** What about the MIC80 [6] of the same compound?
**A.** 25 to 100 µM (≈ 15.1 to 60.5 µg/mL)

**Q.** What about the IC50 (T. vaginalis) of the same compound?
**A.** 5 to 50 µM

**Q.** And the inhibition at 20 µM [7]?
**A.** 10 to 25%

**Q.** And the inhibition at 20 µM (Influenza (H1N1))?
**A.** 10 to 25%

**Q.** What about the MIC80 [8] of the same compound?
**A.** > 100 µM

**Q.** `COc1ccc(/C=C/c2ccc(C(=O)Nc3cc(C(=O)Nc4cc(C(=O)NCCC(=N)NC(C)C)n(C)c4)n(C)c3)cn2)cc1` [Ia15, (E)-N-(5-((5-((3-imino-3-(isopropylamino)propyl)carbamoyl)-1-methyl-1H-pyrrol-3-yl)carbamoyl)-1-methyl-1H-pyrrol-3-yl)-6-(4-methoxystyryl)nicotinamide] was tested. Which MIC99 (C. neoformans (F10025)) did it give?
**A.** < 5 µg/mL

**Q.** And the MIC99 [1]?
**A.** 25 to 50 µg/mL (≈ 40.9 to 81.9 µM)

**Q.** And the “S. aureus Selectivity Indices, Group” value [2]?
**A.** C (Group C: 5 < SI <= 10)

**Q.** And the MIC80 [2]?
**A.** 5 to 25 µM (≈ 3.05 to 15.3 µg/mL)

**Q.** What about the IC50 (T. equiperdum) of the same compound?
**A.** 0.1 to 1 µM

**Q.** What about the IC50 (T. evansi AntTat 3/3) of the same compound?
**A.** 0.1 to 1 µM

**Q.** What about the MIC99 [3] of the same compound?
**A.** 5 to 25 µg/mL (≈ 8.19 to 40.9 µM)

**Q.** What about the “% Normalised Fluorescence with polyAU RNA” value [4] of the same compound?
**A.** 64%

**Q.** What about the “% Normalised Fluorescence with gDNA” value [5] of the same compound?
**A.** 16%

**Q.** What about the IC50 [9] of the same compound?
**A.** 8 to 32 µM

**Q.** What about the MIC80 [6] of the same compound?
**A.** 5 to 25 µM (≈ 3.05 to 15.3 µg/mL)

**Q.** And the IC50 (T. vaginalis)?
**A.** > 50 µM

**Q.** And the inhibition at 20 µM [7]?
**A.** 10 to 25%

**Q.** And the MIC80 [8]?
**A.** 25 to 100 µM (≈ 15.3 to 61.1 µg/mL)

**Q.** Which MIC80 [2] does the source give for `COCCOCCOCCNC(=O)c1cc(NC(=O)c2cc(NC(=O)c3ccc(/C=C/c4cnc5ccccc5c4)cc3)cn2C)cn1C` [IVa8, (E)-N-(2-(2-(2-methoxyethoxy)ethoxy)ethyl)-1-methyl-4-(1-methyl-4-(4-(2-(quinolin-3-yl)vinyl)benzamido)-1H-pyrrole-2-carboxamido)-1H-pyrrole-2-carboxamide] here?
**A.** 5 to 25 µM (≈ 3.32 to 16.6 µg/mL)

**Q.** And the inhibition at 20 µM [10]?
**A.** 25 to 50%

**Q.** What about the “% Normalised Fluorescence with polyAU RNA” value [4] of the same compound?
**A.** 94%

**Q.** And the “% Normalised Fluorescence with gDNA” value [5]?
**A.** 70%

**Q.** And the MIC80 [6]?
**A.** 5 to 25 µM (≈ 3.32 to 16.6 µg/mL)

**Q.** And the “T. vaginalis Selectivity Indices, Group” value (T. vaginalis; SI, IC50 (μM)/IC50 (μM), HEK293 cytotoxicity, Amides)?
**A.** B (Group B: 0.25 < SI <= 0.5)

**Q.** And the IC50 (T. vaginalis)?
**A.** 5 to 50 µM

**Q.** What about the inhibition at 20 µM [7] of the same compound?
**A.** 10 to 25%

**Q.** What about the inhibition at 20 µM (Influenza (H1N1)) of the same compound?
**A.** 10 to 25%

**Q.** And the MIC80 [8]?
**A.** > 100 µM

**Q.** How did the MIC99 (C. neoformans (F10025)) turn out when `CC(C)NC(=N)CCNC(=O)c1cc(NC(=O)c2cc(NC(=O)c3ccc(/C=C/c4cnc5ccccc5c4)cc3)cn2C)cn1C` [Ia21, (E)-N-(3-imino-3-(isopropylamino)propyl)-1-methyl-4-(1-methyl-4-(4-(2-(quinolin-3-yl)vinyl)benzamido)-1H-pyrrole-2-carboxamido)-1H-pyrrole-2-carboxamide] was run?
**A.** > 50 µg/mL

**Q.** What about the MIC99 [1] of the same compound?
**A.** 5 to 25 µg/mL (≈ 7.93 to 39.6 µM)

**Q.** What about the MIC80 [2] of the same compound?
**A.** < 5 µM

**Q.** And the MIC99 [3]?
**A.** < 5 µg/mL

**Q.** What about the MIC99 [11] of the same compound?
**A.** 5 to 25 µg/mL (≈ 7.93 to 39.6 µM)

**Q.** And the inhibition at 20 µM [10]?
**A.** > 50%

**Q.** And the “% Normalised Fluorescence with polyAU RNA” value [4]?
**A.** 2%

**Q.** And the “% Normalised Fluorescence with gDNA” value [5]?
**A.** 3%

**Q.** What about the MIC80 [6] of the same compound?
**A.** < 5 µM

**Q.** And the “T. vaginalis Selectivity Indices, Group” value (T. vaginalis; SI, IC50 (μM)/IC50 (μM), HEK293 cytotoxicity, Alkyl Amidines and NH Pyrroles)?
**A.** D (Group D: SI > 32)

**Q.** What about the “T. vaginalis Selectivity Index (SI)” value (T. vaginalis; SI, IC50 (μM)/IC50 (μM), HEK293 cytotoxicity, numeric value) of the same compound?
**A.** 41

**Q.** What about the IC50 (T. vaginalis) of the same compound?
**A.** < 1 µM

**Q.** And the inhibition at 20 µM [7]?
**A.** 25 to 50%

**Q.** What about the MIC99 (Candida auris (H.17.157); Candidozyma auris, read-out: MIC99 Candida auris) of the same compound?
**A.** 25 to 50 µg/mL (≈ 39.6 to 79.3 µM)

**Q.** And the “C. auris Selectivity Indices, Group” value (Candida auris (H.17.157); SI, IC50 (μM)/MIC99 (μg/mL), HEK293 cytotoxicity, Alkyl Amidines and NH Pyrroles)?
**A.** B (Group B: 0.4 < SI <= 1)

**Q.** What about the inhibition at 20 µM (Influenza (H1N1)) of the same compound?
**A.** 25 to 50%

**Q.** And the MIC80 [8]?
**A.** > 100 µM

**Q.** For `CN(C)c1ccc(/C=C/c2ccc(C(=O)Nc3c[nH]c(C(=O)Nc4c[nH]c(C(=O)NCCN5CCOCC5)c4)c3)cn2)cc1` [IIIb7, (E)-6-(4-(dimethylamino)styryl)-N-(5-((5-((2-morpholinoethyl)carbamoyl)-1H-pyrrol-3-yl)carbamoyl)-1H-pyrrol-3-yl)nicotinamide], which “S. aureus Selectivity Indices, Group” value [2] is on record?
**A.** B (Group B: 3 < SI <= 5)

**Q.** What about the MIC80 [2] of the same compound?
**A.** 5 to 25 µM (≈ 2.98 to 14.9 µg/mL)

**Q.** What about the inhibition at 20 µM [10] of the same compound?
**A.** 10 to 25%

**Q.** And the “% Normalised Fluorescence with polyAU RNA” value [4]?
**A.** 44%

**Q.** And the “% Normalised Fluorescence with gDNA” value [5]?
**A.** 63%

**Q.** What about the MIC80 [6] of the same compound?
**A.** > 100 µM

**Q.** What about the MIC80 [8] of the same compound?
**A.** > 100 µM
